Data from ChEMBL document CHEMBL3352806, “Cytotoxic bibenzyl dimers from the stems of Dendrobium fimbriatum Hook” (Bioorg Med Chem Lett, 2014).
Active and inactive are the calls of the source. The calls are words filed in the database; no cut-off is given here.

Tests used:
Assay type in all cases: functional, cell-based
MCF7 [1] = assay: Cytotoxicity against human MCF7 cells assessed as reduction in cell number at 40 uM
SMMC-7721 [2] = assay: Cytotoxicity against human SMMC7721 cells assessed as reduction in cell number at 40 uM
SW480 [3] = assay: Cytotoxicity against human SW480 cells assessed as reduction in cell number at 40 uM
HL-60 = assay: Cytotoxicity against human HL60 cells assessed as reduction in cell number at 40 uM
A549 [4] = assay: Cytotoxicity against human A549 cells assessed as reduction in cell number at 40 uM
SMMC-7721 [5] = assay: Cytotoxicity against human SMMC7721 cells assessed as reduction in cell number
[6] = Cytotoxicity against human HL60 cells assessed as reduction in cell number; conditions: HL-60
SW480 [7] = assay: Cytotoxicity against human SW480 cells assessed as reduction in cell number
A549 [8] = assay: Cytotoxicity against human A549 cells assessed as reduction in cell number
MCF7 [9] = assay: Cytotoxicity against human MCF7 cells assessed as reduction in cell number

SMILES	Activity (MCF7 [1])	Activity (SMMC-7721 [2])	Activity (SW480 [3])	Activity (HL-60)	Activity (A549 [4])	IC50 (SMMC-7721 [5]) [µM]	IC50 [6] [µM]	IC50 (SW480 [7]) [µM]	IC50 (A549 [8]) [µM]	IC50 (MCF7 [9]) [µM]
COc1cc(O)cc(CCc2cccc(O)c2)c1	inactive	inactive	inactive	inactive	inactive	–	–	–	–	–
COc1cc(CC(OC)c2cc(OC)c(O)c(OC)c2)ccc1O (stereo not given)	inactive	inactive	inactive	inactive	inactive	–	–	–	–	–
COc1cc(CCc2cc(O)c(Cc3c(CCc4ccc(O)c(OC)c4)cc(O)cc3OC)c(OC)c2)ccc1O	–	–	–	–	–	16.6	15.8	18.2	15.6	12.1
COc1cc(O)cc(CCc2ccc(O)c(OC)c2)c1	inactive	inactive	inactive	inactive	inactive	–	–	–	–	–
COc1cc(CCc2cc(O)c(OC)c(OC)c2)ccc1O	–	–	–	–	–	> 40	24.3	> 40	> 40	37.1
COc1cc(O)c(Cc2c(O)cc(OC)cc2CCc2ccc(O)c(OC)c2)c(CCc2ccc(O)c(OC)c2)c1	–	–	–	–	–	17.5	19.1	18.8	16.6	13.7
COc1cc(CCc2cc(O)cc(OC)c2Cc2c(CCc3ccc(O)c(OC)c3)cc(O)cc2OC)ccc1O	–	–	–	–	–	16.9	13.9	18.8	14.5	5.85
Oc1cc(O)c2c(c1)C[C@H](O)c1cccc(O)c1-2	inactive	inactive	inactive	inactive	inactive	–	–	–	–	–
COc1cc(CCc2cc(O)c(Cc3c(CCc4cccc(O)c4)cc(O)cc3OC)c(OC)c2)ccc1O	–	–	–	–	–	> 40	22.3	> 40	> 40	24.8
COc1cc(CCc2cc(O)cc(O)c2)ccc1O	inactive	inactive	inactive	inactive	inactive	–	–	–	–	–
COc1cc(CCc2cc(O)cc(O)c2Cc2c(O)cc(O)cc2CCc2ccc(O)c(OC)c2)ccc1O	inactive	inactive	inactive	inactive	inactive	–	–	–	–	–
COc1cc(O)c(Cc2c(CCc3ccc(O)c(OC)c3)cc(O)cc2OC)c(CCc2ccc(O)c(OC)c2)c1	–	–	–	–	–	18.9	16.8	21.2	16.5	7.75
COc1cc(O)c(Cc2c(O)cc(CCc3ccc(O)c(OC)c3)cc2OC)c(CCc2ccc(O)c(OC)c2)c1	–	–	–	–	–	18.3	16.1	17.2	16.3	12.7
COc1cc(CCc2cc(OC)c(O)c(OC)c2)ccc1O [MOSCATILIN]	–	–	–	–	–	4.07	2.18	6.88	5.73	6.2
COc1ccc(CCc2cc(OC)c(O)c(OC)c2)cc1O	–	–	–	–	–	10.1	2.95	5.17	6.6	12.3
